Patent US12409206B2, “Use of cyclosporine analogues for treating fibrosis” (Hepion Pharmaceuticals, Inc., priority 2020, dated 2025)

Tests used:
Format in all cases: cell-based
[1] = tested on: Human renal mesangial cells; assay: Procollagen and fibronectin ELISA of spent medium, renal mesangial cell culture; conditions: medium from Day 2-4 of treatment, both in the absence or presence of 0.4 ng/ml TGFβ
Procedure: Human renal mesangial cells (ScienCell, Cat. #4200 (SC)) were cultured in 96-well plates. Treatments were applied in triplicate wells (applied 100 ul treatments per well) for 2 days, then re-applied for an additional 2 days. Cells were near confluence at the start of treatments. […] Spent culture medium collected from Day 2-4 of treatment was assayed for procollagen and fibronectin by enzyme-linked immunosorbent assays (ELISA) (Procollagen ELISA antibody pair (ab216064) and fibronectin ELISA antibody pair (ab222262) from Abcam). Procollagen and fibronectin were not detected in medium not applied to cells. Procollagen and fibronectin levels in the medium are represented by means±SD (bars) from 3 replicate wells (open circles).

[2] = tested on: Human Lung Fibroblasts from a Patient with Idiopathic Pulmonary Fibrosis (IPF); assay: Procollagen and fibronectin ELISA of spent medium, IPF lung fibroblast culture; conditions: 6 days, both in the absence or presence of 0.4 ng/ml TGFβ
Procedure: (§1) Human Lung Fibroblasts from a Patient with Idiopathic Pulmonary Fibrosis (IPF) (Lonza Bioscience, Cat. #CC-7231) were cultured in 96-well plates. Treatments were applied in triplicate wells (applied 100 ul treatments per well) for 6 days. Cells were near confluence at the start of treatments. […] Spent culture medium collected at the end of the treatments was assayed for procollagen and fibronectin by enzyme-linked immunosorbent assays (ELISA) (Procollagen ELISA antibody pair (ab216064) and fibronectin ELISA antibody pair (ab222262) from Abcam). Procollagen and fibronectin were not detected in medium not applied to cells. Procollagen and fibronectin levels in the medium are represented by means±SD (bars) from 3 replicate wells (open circles).

[3] = tested on: Human Lung Fibroblasts from a Patient with Idiopathic Pulmonary Fibrosis (IPF); assay: Cell viability analysis, IPF lung fibroblast culture; conditions: end of treatment (6 days)
Procedure: as §1

[4] = tested on: Human adult dermal fibroblasts; assay: Procollagen and fibronectin ELISA of spent medium, dermal fibroblast culture; conditions: medium from Day 1-2 of treatment, in the absence or presence of 10 ng/ml EGF or 0.4 ng/ml TGFβ
Procedure: Human adult dermal fibroblasts (Lonza Bioscience, Cat. #CC-2511) were cultured in 96-well plates. Treatments were applied in triplicate wells (applied 100 ul treatments per well) for 1 day, then re-applied for one additional day. Cells were near confluence at the start of treatments. […] Spent culture medium collected from Day 1-2 of treatment was assayed for procollagen and fibronectin by enzyme-linked immunosorbent assays (ELISA) (Procollagen ELISA antibody pair (ab216064) and fibronectin ELISA antibody pair (ab222262) from Abcam). Procollagen and fibronectin were not detected in medium not applied to cells. Procollagen and fibronectin levels in the medium are represented by means±SD (bars) from 3 replicate wells (open circles). […].

CC[C@@H]1NC(=O)[C@H]([C@H](O)[C@H](C)CCCCCCNC(C)=O)N(C)C(=O)[C@H](C(C)C)N(C)C(=O)[C@H](CC(C)C)N(C)C(=O)[C@H](CC(C)C)N(C)C(=O)[C@@H](C)NC(=O)[C@H](C)NC(=O)[C@H](CC(C)C)N(C)C(=O)[C@H](C(C)C)NC(=O)[C@H](CC(C)C)N(C)C(=O)[C@@H](C)N(C)C1=O [CRV431]
abundance of fibronectin in the medium [1]: dose-dependently decreased
abundance of procollagen in the medium [1]: dose-dependently decreased
abundance of fibronectin in the medium [2]: dose-dependently decreased
abundance of procollagen in the medium [2]: dose-dependently decreased
cell viability [3]: none of the CRV431 treatments affected cell viability
abundance of fibronectin in the medium [4]: dose-dependently decreased
abundance of procollagen in the medium [4]: dose-dependently decreased
